“And” between values parts separate entries of the source, which are not always exact repeats. Equal entries are not always repeated.
Legend:
SK-MEL-28 = assay: cells; details: Homo sapiens, SK-MEL-28, read-out: LC50 (Replicate Results), SK-MEL-28, 4 hour exposure, colonies after 14-21 days
Method: Control plates received the same volume of DMSO alone. After a 4 hour exposure the drug was carefully removed, and drug-free medium could be added. […] Colonies of greater than 50 cells were scored as survivors. Cells were maintained at 37° C. in 5% CO2 in complete humidity.

[1] = Pharmacokinetic profile of intraperitoneal dosing in mice, Lipiodol formulation; details: IP 150 mg/m^2 in Lipiodol
Method: A study was performed to determine the pharmacokinetic profile of intraperitoneal (IP) dosing in mice.

A549 lung cancer cells = assay: cells; details: Homo sapiens, A549, read-out: LC50, A549 Clone B surviving >LC99
[2] = system: A549 human lung cancer cells; details: 60 mg/kg IP every three days, 8 treatments
Method: Athymic female nude mice (Ncr) were inoculated subcutaneously with 4×10^6 A549 human lung cancer cells, and the tumors were allowed to grow to 50 mm^3 in size. The animals were randomized into three groups of seven animals per group. […] Mean tumor volume was then analyzed.

[3] = Study 2B: dose-range-finding toxicity study, single intravenous administration in dogs; details: two dogs
Method: The time interval between each dose was three to four days.
Whole blood samples (1 ml/sample) were also collected on each day of dose administration for toxicokinetics analysis.

[4] = Study 1B: dose-range-finding single dose intravenous toxicity study in rats
From the text: In Study No. 1B, five groups of six adult Sprague-Dawley rats (three male and three female) were randomized to treatment groups and treated via intravenous infusion as shown in
Other observations included clinical signs, body weights and food consumption. On Day 8, animals were anesthetized with CO2 and blood for testing was collected by cardiocentesis, then animals were euthanized by CO2 asphyxiation and subjected to gross necropsy with histopathological evaluation performed on major organs (lungs, heart, liver, brain, spleen and kidneys).

[5] = system: multiple myeloma (MM) cells; assay: MTT assay of multiple myeloma cells; assay type: cell-based, human; details: 4 μM, 24 h, all seven MM cell lines
[6] = Pharmacokinetics after intravenous infusion in rats, HPBCD formulation; details: male, Sprague-Dawley, rat, plasma

In the case of `CC1(C)CCC2=C(O1)c1ccccc1C(=O)C2=O` [β-lapachone, 3,4-dihydro-2,2-dimethyl-2H-naphtho [1,2-b]pyran-5,6-dione], the CC50 (SK-MEL-28) is reported as 2400 nM, the peak plasma level [1] is reported as “approximately 8 μM” and the “time at which peak plasma levels were achieved” value [1] is reported as “within one-half hour”. The CC50 (A549 lung cancer cells) was 1500 nM, the “reduction of mean tumor volume” value [2] was “approximately 50%” and the total bilirubin levels ([3]; 45 mg/kg dose, predose 0.38 and 0.26) was 0.66 mg/dL and 0.87 mg/dL. The “hemoglobin at end of study” value ([3]; 11-day study, declined from 14.9 and 13.5) was 9.1 g/dL and 9.7 g/dL, the clinical signs ([4]; 60 mg/kg, 1-2 hours after dosing, resolved by Day 2) was “transient clinical signs” and the histopathological findings ([4]; 75 mg/kg group) was “Minimal to mild hepatocellular vacuolation and renal tubular epithelial pallor and attenuation”. For the same molecule, the “mortality and clinical signs” value ([4]; 30 or 45 mg/kg dose groups) was “No mortality or clinical signs of toxicity”, the “hematology and serum chemistry values” ([4]; all groups) was “generally unremarkable” and the NOEL ([4]; single one-hour intravenous dose at 3 mg/ml, male and female rats) was 45 mg/kg. The “cell viability in cultures” value [5] was “significantly decreased”, the half-life ([6]; intravenous, elimination half-life, one-hour infusion, doses in the range 5-15 mg/kg) was 270 to 420 min and the AUC ([6]; iv, 5 mg/kg, 1-Hour Infusion) was 1280 ± 118 ng·h/mL. The AUC ([6]; iv, 5 mg/kg, 10-Min. Infusion) was 1200 ± 313 ng·h/mL, the Cmax ([6]; iv, 5 mg/kg, 1-Hour Infusion) was 363 ± 21 ng/mL and the Cmax ([6]; iv, 5 mg/kg, 10-Min. Infusion) was 834 ± 116 ng/mL. For the same molecule, the half-life ([6]; iv, 5 mg/kg, T1/2, 1-Hour Infusion) was 258 ± 36 min, the half-life ([6]; iv, 5 mg/kg, T1/2, 10-Min. Infusion) was 216 ± 54 min and the Vd ([6]; iv, 5 mg/kg, Vdss, 1-Hour Infusion) was 19.6 ± 0.8 L/kg. For the same molecule, the Vd ([6]; iv, 5 mg/kg, Vdss, 10-Min. Infusion) was 20 ± 6.3 L/kg, the AUC ([6]; iv, 10 mg/kg, 1-Hour Infusion) was 2640 ± 1020 ng·h/mL and the Cmax ([6]; iv, 10 mg/kg, 1-Hour Infusion) was 707 ± 134 ng/mL. For the same molecule, the half-life ([6]; iv, 10 mg/kg, T1/2, 1-Hour Infusion) was 294 ± 96 min, the Vd ([6]; iv, 10 mg/kg, Vdss, 1-Hour Infusion) was 21 ± 5.3 L/kg and the AUC ([6]; iv, 15 mg/kg, 1-Hour Infusion) was 4900 ± 54 ng·h/mL. For the same molecule, the Cmax ([6]; iv, 15 mg/kg, 1-Hour Infusion) was 896 ± 130 ng/mL, the half-life ([6]; iv, 15 mg/kg, T1/2, 1-Hour Infusion) was 420 ± 96 min and the Vd ([6]; iv, 15 mg/kg, Vdss, 1-Hour Infusion) was 26.4 ± 5.7 L/kg. It also gave a Vd ([6]; iv, volume of distribution, intravenous infusion) of 20 to 26 L/kg.
